These results are taken from patent US6342602B1, “Aryl or heteroaryl amides of tetrahydronaphthalene, chroman, thichroman and 1,2,3,4-tetrahydroquinolinecarboxlic acids, having an electron withdrawing substituent in the aromatic or heteroaromatic moiety, having retinoid-like biological activity” (Allergan Sales, Inc., priority 1995, dated 2002).

What all share (assay): Ligand binding assay
One experiment deals with T1, RARΓ (Homo sapiens, UniProt P13631).
T1 construct: made in house; used as extract protein
T1 sequence (P13631 1-454): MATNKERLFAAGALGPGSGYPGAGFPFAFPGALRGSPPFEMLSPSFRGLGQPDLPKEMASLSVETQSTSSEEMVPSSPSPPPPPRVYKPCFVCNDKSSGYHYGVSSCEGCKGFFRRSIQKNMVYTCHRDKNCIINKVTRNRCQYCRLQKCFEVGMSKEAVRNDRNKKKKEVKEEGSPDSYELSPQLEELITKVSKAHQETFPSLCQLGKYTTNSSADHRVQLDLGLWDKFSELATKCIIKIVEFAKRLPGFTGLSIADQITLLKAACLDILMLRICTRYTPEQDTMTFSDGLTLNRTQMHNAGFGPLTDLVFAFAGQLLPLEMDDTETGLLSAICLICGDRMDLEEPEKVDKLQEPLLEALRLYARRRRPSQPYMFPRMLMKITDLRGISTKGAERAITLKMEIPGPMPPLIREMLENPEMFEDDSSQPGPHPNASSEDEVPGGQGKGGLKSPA
The method, then:
(§1) A holoreceptor transactivation assay and a ligand binding assay which measure the ability of the compounds of the invention to bind to the several retinoid receptor subtypes, respectively, are described in published PCT Application No. WO WO93/11755 (particularly on pages 30-33 and 37-41) published on Jun. 24, 1993, the specification of which is also incorporated herein by reference. A description of the ligand binding assay is also provided below.
(§2) All binding assays were performed in a similar fashion. All six receptor types were derived from the expressed receptor type (RAR α, β, τ and RXR α, β, τ) expressed in Baculovirus. Stock solutions of all compounds were prepared as 10 mM ethanol solutions and serial dilutions carried out into 1:1 DMSO; ethanol. Assay buffers consisted of the following for all six receptor assays: 8% glycerol, 120 mM KCl, 8 mM Tris, 5 mM CHAPS 4 mM DTT and 0.24 mM PMSF, pH-7.4@room temperature.
(§3) All receptor biding assays were performed in the same manner. The final assay volume was 250 μl and contained from […] of extract protein depending on receptor being assayed along with 5 nM of [^3H) alltrans retinoic acid or 10 nM [^3H) 9-cis retinoic acid and varying concentrations of competing ligand at concentrations that ranged from 0-10^−5 M. The assays were formatted for a 96 well minitube system. Incubations were carried out at 4° C. until equilibrium was achieved. Non-specific binding was defined as that binding remaining in the presence of 1000 nM of the appropriate unlabeled retinoic acid isomer. At the end of the incubation period, 50 μl of 6.25% hydroxyapitite was added in the appropriate wash buffer. The wash buffer consisted of 100 mM KCl, 10 mM Tris and either 5 mM CHAPS (RXR α, β, τ) or 0.5% Triton X-100 (RAR α, β, τ). The mixture was vortexed and incubated for 10 minutes at 4° C., centrifuged and the supernatant removed. The hydroxyapitite was washed three more times with the appropriate wash buffer. The receptor-ligand complex was adsorbed by the hydroxyapitite. The amount of receptor-ligand complex was determined by liquid scintillation counting of hydroxyapitite pellet.
(§4) After correcting for non-specific binding, IC50 values were determined. […] The IC50 value was determined graphically from a loglogit plot of the data. The Kd values were determined by application of the ChengPrussof equation to the IC50 values, the labeled ligand concentration and the Kd of the labeled ligand.
(§5) The results of ligand binding assay are expressed in Kd numbers. (See Cheng et al. Biochemical Pharmacology Vol. 22 pp 3099-3108, expressly incorporated herein by reference.)

The target of the next experiment is T2, RARα (Homo sapiens, UniProt P10276).
T2 construct: made in house; used as extract protein
T2 sequence (P10276 1-462): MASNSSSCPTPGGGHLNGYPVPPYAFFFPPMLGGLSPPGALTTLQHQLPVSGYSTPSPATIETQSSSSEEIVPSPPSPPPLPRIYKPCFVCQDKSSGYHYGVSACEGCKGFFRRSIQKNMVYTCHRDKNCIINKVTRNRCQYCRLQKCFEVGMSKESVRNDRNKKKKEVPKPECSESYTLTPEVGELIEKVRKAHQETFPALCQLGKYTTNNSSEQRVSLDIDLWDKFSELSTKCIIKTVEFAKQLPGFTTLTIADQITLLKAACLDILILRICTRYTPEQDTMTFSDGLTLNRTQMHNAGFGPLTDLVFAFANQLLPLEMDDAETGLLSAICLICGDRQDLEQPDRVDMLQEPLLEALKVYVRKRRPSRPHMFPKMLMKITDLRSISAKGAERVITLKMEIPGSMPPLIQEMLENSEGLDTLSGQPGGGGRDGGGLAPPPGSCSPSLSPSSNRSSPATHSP
The method, then:
as §1, §2, §3, §4, §5

The target in the next experiment is T3, RXRΓ (Homo sapiens, UniProt P48443).
T3 construct: made in house; used as extract protein
T3 sequence (P48443 1-463): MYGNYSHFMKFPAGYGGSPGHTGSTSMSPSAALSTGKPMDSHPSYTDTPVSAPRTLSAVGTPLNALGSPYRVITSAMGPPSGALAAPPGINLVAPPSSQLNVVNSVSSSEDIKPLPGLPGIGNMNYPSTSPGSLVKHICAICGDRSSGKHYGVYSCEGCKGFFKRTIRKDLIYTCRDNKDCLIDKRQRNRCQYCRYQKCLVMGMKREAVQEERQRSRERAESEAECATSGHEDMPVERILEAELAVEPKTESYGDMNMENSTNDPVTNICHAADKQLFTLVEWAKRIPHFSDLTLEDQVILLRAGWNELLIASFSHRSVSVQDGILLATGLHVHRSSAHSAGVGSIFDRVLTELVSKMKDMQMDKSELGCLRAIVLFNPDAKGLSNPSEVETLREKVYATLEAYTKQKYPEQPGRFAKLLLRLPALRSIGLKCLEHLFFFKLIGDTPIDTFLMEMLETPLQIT
Conditions: receptor expressed in Baculovirus; competition with [3H] retinoic acid; Cheng-Prusoff from IC50. The method, then:
as §1, §2, §3, §4, §5

The target in another experiment is T4, RXRβ (Homo sapiens, UniProt P28702).
T4 construct: made in house; used as extract protein
T4 sequence (P28702 1-533): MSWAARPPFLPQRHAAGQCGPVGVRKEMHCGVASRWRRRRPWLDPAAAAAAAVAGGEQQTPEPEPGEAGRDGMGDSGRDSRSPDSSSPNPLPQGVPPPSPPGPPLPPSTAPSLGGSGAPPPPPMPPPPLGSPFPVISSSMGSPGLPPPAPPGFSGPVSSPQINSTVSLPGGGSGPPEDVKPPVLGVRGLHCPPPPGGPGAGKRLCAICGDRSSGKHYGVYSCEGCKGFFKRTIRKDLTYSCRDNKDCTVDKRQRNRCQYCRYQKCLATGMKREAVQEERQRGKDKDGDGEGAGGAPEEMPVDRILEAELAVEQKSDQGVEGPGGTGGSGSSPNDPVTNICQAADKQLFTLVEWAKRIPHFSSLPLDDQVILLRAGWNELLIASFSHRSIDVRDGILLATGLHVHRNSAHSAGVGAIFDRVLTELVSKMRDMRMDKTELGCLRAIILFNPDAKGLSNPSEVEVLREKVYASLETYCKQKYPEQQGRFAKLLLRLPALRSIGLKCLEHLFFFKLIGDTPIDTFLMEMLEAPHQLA
Particulars: receptor expressed in Baculovirus; competition with [3H] retinoic acid; Cheng-Prusoff from IC50. Here is the method: as §1, §2, §3, §4, §5

The mark [1] stands for this setting: receptor expressed in Baculovirus, competition with [3H] retinoic acid, Cheng-Prusoff from IC50, read-out: Kd RARΓ.
[2] abbreviates: receptor expressed in Baculovirus, competition with [3H] retinoic acid, Cheng-Prusoff from IC50, read-out: Kd RARα.

Read-outs that look alike come from different tables or passages of the source.

In the case of `CC1(C)CCC(C)(C)c2cc(C(=O)Nc3ccc(C(=O)O)c(F)c3)ccc21` [Compound 2], the Kd was over 1000 nM on RARΓ (setting [1]), 1.9 nM on RARα (setting [2]), over 1000 nM at RXRΓ and over 1000 nM at RXRβ.

Regarding `CC1(C)CCC(C)(C)c2cc(C(=O)Nc3ccc(C(=O)O)cc3)c(F)cc21` [Compound 4], the Kd at RARΓ (setting [1]) was 96 nM; on RARα (setting [2]), 23 nM; at RXRΓ it was over 1000 nM; on RXRβ, over 1000 nM.

Turning to `CC1(C)CCC(C)(C)c2c(Br)cc(C(=O)Nc3ccc(C(=O)O)c(F)c3)cc21` [Compound 6], the Kd is over 1000 nM at RARΓ (setting [1]), 1.3 nM at RARα (setting [2]), over 1000 nM on RXRΓ and over 1000 nM on RXRβ.

`CC1(C)CCC(C)(C)c2cc(C(=O)Nc3ccc(C(=O)O)c(F)c3)c(O)cc21` [Compound 8]: the dissociation constant (Kd) at RARΓ (setting [1]) was over 1000 nM; at RARα (setting [2]), 3 nM; at RXRΓ, over 1000 nM; at RXRβ it was over 1000 nM.

For the molecule `CC1(C)CC(C)(C)c2cc(C(=O)Nc3ccc(C(=O)O)c(F)c3)cc(Br)c2O1` [Compound 12], the Kd at RARΓ (setting [1]) is over 1000 nM; on RARα (setting [2]), 24 nM; on RXRΓ, over 1000 nM; at RXRβ, over 1000 nM.

In the case of `CC1(C)CC(C)(C)c2cc(C(=O)Nc3ccc(C(=O)O)c(F)c3)cc(C(F)(F)F)c2O1` [Compound 14], the Kd at RARΓ (setting [1]) was over 1000 nM; at RARα (setting [2]), 14 nM; at RXRΓ it was over 1000 nM; at RXRβ it was over 1000 nM.

As for `CC1(C)CC(C)(C)c2cc(C(=O)Nc3ccc(C(=O)O)c(F)c3)cc(N=[N+]=[N-])c2O1` [Compound 16, 2-Fluoro-4-[(21′,2′,4′,4′-tetramethyl-8′-azidochroman-6′-yl)carbamoyl]benzoic Acid], the Kd was over 1000 nM at RARΓ (setting [1]), 52 nM on RARα (setting [2]), over 1000 nM at RXRΓ and over 1000 nM on RXRβ.

On to `CC1(C)CC(C)(C)c2cc(C(=O)Nc3cc(F)c(C(=O)O)c(F)c3)cc(C(F)(F)F)c2O1` [Compound 18, 2,6-Difluoro-4-[(2′,2′,4′,4′-tetramethyl-8′-trifluoromethylchroman-6′-yl)carbamoyl]benzoic Acid], for which the Kd is over 1000 nM at RARΓ (setting [1]), 51 nM at RARα (setting [2]), over 1000 nM at RXRΓ and over 1000 nM on RXRβ.

Regarding `CC1(C)CC(C)(C)c2cc(C(=O)Nc3ccc(C(=O)O)c(F)c3)cc(I)c2O1` [Compound 20], the Kd at RARΓ (setting [1]) was over 1000 nM; on RARα (setting [2]), 16 nM; at RXRΓ, over 1000 nM; on RXRβ, over 1000 nM.

As to `Cc1cc(C(=O)Nc2ccc(C(=O)O)c(F)c2)cc2c1OC(C)(C)CC2(C)C` [Compound 22], the Kd is over 1000 nM at RARΓ (setting [1]), 57 nM on RARα (setting [2]), over 1000 nM at RXRΓ and over 1000 nM at RXRβ.

Consider `CC1(C)CCC(C)(C)c2cc(C(=S)Nc3ccc(C(=O)O)cc3)ccc21` [Compound 26], for which the Kd at RARΓ (setting [1]) is over 1000 nM; at RARα (setting [2]) it was 15 nM; on RXRΓ, over 1000 nM; at RXRβ it was over 1000 nM.

As for `CC1(C)CC(C)(C)c2cc(C(=O)Nc3ccc(C(=O)O)c(F)c3)ccc2O1` [Compound 32], the Kd on RARΓ (setting [1]) was over 1000 nM; on RARα (setting [2]), 162 nM; on RXRΓ, over 1000 nM; on RXRβ, over 1000 nM.

For `CC1(C)CCC(C)(C)c2c1cc(C(=O)Nc1cc(F)c(C(=O)O)c(F)c1)c(O)c2Br` [Compound 36], the Kd on RARΓ is over 1000 nM; at RARα it was 2.3 nM; on RXRΓ, over 1000 nM; at RXRβ it was over 1000 nM.

Turning to `CC1(C)CCC(C)(C)c2cc(C(=O)Nc3cc(F)c(C(=O)O)c(F)c3)ccc21` [Compound 38], the dissociation constant (Kd) on RARΓ (setting [1]) was over 1000 nM; on RARα (setting [2]) it was 9 nM; at RXRΓ, over 1000 nM; on RXRβ, over 1000 nM.
